# Assay results from US11564394B2, “Distorted gold (I)-phosphine complexes and methods for use as antifungal agents” (University of Kentucky Research Foundation, priority 2019, dated 2023).
# Tests used:
# [1] = test system: C. albicans ATCC MYA-1003(R) (strain A); type: cell-based, Candida albicans; settings: strain A = C. albicans ATCC MYA-1003(R); MIC-0; 48 h at 35° C.
# [2] = test system: A. nidulans ATCC 38163 (strain Q); assay: MIC determination (broth microdilution); type: cell-based, Aspergillus nidulans; settings: strain Q = A. nidulans ATCC 38163; MIC-0; 72 h at 35° C.
# [3] = test system: C. glabrata ATCC 2001 (strain H); assay: MIC determination (broth microdilution); type: cell-based, Candida glabrata; settings: strain H = C. glabrata ATCC 2001; MIC-0; 48 h at 35° C.
# [4] = test system: A. flavus ATCC MYA-3631 (strain S); assay: MIC determination (broth microdilution); type: cell-based, Aspergillus flavus; settings: strain S = A. flavus ATCC MYA-3631; MIC-0; 72 h at 35° C.
# [5] = test system: C. parapsilosis ATCC 22019 (strain J); assay: MIC determination (broth microdilution); type: cell-based; settings: strain J = C. parapsilosis ATCC 22019; MIC-0; 48 h; listed as printed beside letter K
# [6] = test system: C. neoformans CN1 (strain N); assay: MIC determination (broth microdilution); type: cell-based, Cryptococcus neoformans; settings: MIC-0, 72 h at 35° C.
# [7] = test system: C. albicans ATCC 10231(R) (strain B); type: cell-based, Candida albicans
# [8] = test system: C. albicans ATCC MYA-1237(R) (strain C); type: cell-based, Candida albicans; settings: strain C = C. albicans ATCC MYA-1237(R); MIC-0; 48 h; listed as printed beside letter D
# [9] = test system: F. graminearum 053 (strain T); type: cell-based, Fusarium graminearum; settings: strain T = F. graminearum 053; MIC-0; room temperature, 5 days
# [10] = test system: C. albicans ATCC MYA-2876(S) (strain E); assay: MIC determination (broth microdilution); type: cell-based, Candida albicans; settings: strain E = C. albicans ATCC MYA-2876(S); MIC-0; 48 h; listed as printed beside letter F
# [11] = test system: C. neoformans CN3 (strain P); assay: MIC determination (broth microdilution); type: cell-based, Cryptococcus neoformans; settings: MIC-0, 72 h at 35° C.
# [12] = test system: C. auris AR Bank # 0384 (strain K); assay: MIC determination (broth microdilution); type: cell-based, Candida auris; settings: strain K = C. auris AR Bank # 0384; MIC-0; 48 h (CAS read at 24 h); Table 1; also in Table 2
# [13] = test system: C. albicans ATCC MYA-2310(S) (strain D); assay: MIC determination (broth microdilution); type: cell-based, Candida albicans; settings: strain D = C. albicans ATCC MYA-2310(S); MIC-0; 48 h; listed as printed beside letter E
# [14] = test system: fungal strains (Candida spp., Cryptococcus spp., Aspergillus spp., Fusarium spp.); assay: MIC determination, summary statements over the strain panel; type: cell-based; settings: for overall assessment as antifungals: panel of twenty fungal strains (Table 1)
# [15] = test system: C. albicans ATCC 64124(R) (strain F); type: cell-based, Candida albicans; settings: strain F = C. albicans ATCC 64124(R); MIC-0; 48 h; listed as printed beside letter G
# [16] = test system: A. terreus ATCC MYA-3633 (strain R); type: cell-based, Aspergillus terreus; settings: strain R = A. terreus ATCC MYA-3633; MIC-0; 72 h at 35° C.
# [17] = test system: C. auris AR Bank # 0390 (strain L); assay: MIC determination (broth microdilution); type: cell-based, Candida auris; settings: strain L = C. auris AR Bank # 0390; MIC-0; 48 h (CAS read at 24 h); Table 1 row printed without letter, below L; also in Table 2
# [18] = test system: C. neoformans CN2 (strain O); assay: MIC determination (broth microdilution); type: cell-based, Cryptococcus neoformans; settings: MIC-0, 72 h at 35° C.
# [19] = test system: C. neoformans ATCC MYA-85 (strain M); assay: MIC determination (broth microdilution); type: cell-based, Cryptococcus neoformans; settings: strain M = C. neoformans ATCC MYA-85; MIC-0; 72 h at 35° C.
# [20] = test system: C. krusei ATCC 6258 (strain I); assay: MIC determination (broth microdilution); type: cell-based; settings: strain I = C. krusei ATCC 6258; MIC-0; 48 h; listed as split over r16 and r17 (r17 printed beside letter J)
# [21] = test system: C. albicans ATCC 90819(R) (strain G); type: cell-based, Candida albicans; settings: strain G = C. albicans ATCC 90819(R); MIC-0; 48 h; listed as printed without letter, below G
smiles,measurement,setting,value
"[Cl-].c1ccc([P+]2(c3ccccc3)c3ccccc3[P+](c3ccccc3)(c3ccccc3)[Au-3]23[P+](c2ccccc2)(c2ccccc2)c2ccccc2[P+]3(c2ccccc2)c2ccccc2)cc1 [Compound 2, bis-[1,2-bis(diphenylphosphino)benzene]gold(1)]",MIC,[1],15.6 µg/mL
same,MIC (in parentheses),[1],13.9 µM
same,MIC,[2],> 31.3 µg/mL
same,MIC (in parentheses),[2],> 27.8 µM
same,MIC,[3],7.8 µg/mL
same,MIC (in parentheses),[3],6.9 µM
same,MIC,[4],> 31.3 µg/mL
same,MIC (in parentheses),[4],> 27.8 µM
same,MIC,[5],7.8 µg/mL
same,MIC (in parentheses),[5],6.9 µM
same,MIC,[6],3.9 µg/mL
same,MIC (in parentheses),[6],3.5 µM
same,MIC,[7],15.6 (13.9) μg/mL
same,MIC (in parentheses),[7],15.6 (13.9) μM
same,MIC,[8],15.6 µg/mL
same,MIC (in parentheses),[8],13.9 µM
same,MIC,[9],31.3 µg/mL
same,MIC (in parentheses),[9],27.8 µM
same,MIC,[10],7.8 µg/mL
same,MIC (in parentheses),[10],6.9 µM
same,MIC,[11],3.9 µg/mL
same,MIC (in parentheses),[11],3.5 µM
same,MIC,[12],> 31.3 µg/mL
same,MIC (in parentheses),[12],> 27.8 µM
same,MIC,[13],7.8 µg/mL
same,MIC (in parentheses),[13],6.9 µM
same,antifungal activity,"[14]; Aspergillus spp., Fusarium spp. and most of the non-albicans Candida strains",inactive
same,overall assessment as antifungals,[14],poor antifungals
same,MIC,[15],7.8 µg/mL
same,MIC (in parentheses),[15],6.9 µM
same,MIC,[16],> 31.3 µg/mL
same,MIC (in parentheses),[16],> 27.8 µM
same,MIC,[17],> 31.3 µg/mL
same,MIC (in parentheses),[17],> 27.8 µM
same,MIC,[18],3.9 µg/mL
same,MIC (in parentheses),[18],3.5 µM
same,MIC,[19],3.9 µg/mL
same,MIC (in parentheses),[19],3.5 µM
same,MIC,[20],15.6 µg/mL
same,MIC (in parentheses),[20],13.9 µM
same,MIC,[21],7.8 µg/mL
same,MIC (in parentheses),[21],6.9 µM
"CC1CCC(C)[P+]1([Au-][Cl])c1ccccc1[P+]1([Au-][Cl])C(C)CCC1C [Compound 3, [1,2-bis[(2S,5S)-2,5-dimethylphospholano]benzene]digold(1)]",MIC,[1],31.3 µg/mL
same,MIC (in parentheses),[1],40.6 µM
same,MIC,[2],> 31.3 µg/mL
same,MIC (in parentheses),[2],> 40.6 µM
same,MIC,[3],> 31.3 µg/mL
same,MIC (in parentheses),[3],> 40.6 µM
same,MIC,[4],> 31.3 µg/mL
same,MIC (in parentheses),[4],> 40.6 µM
same,MIC,[5],> 31.3 µg/mL
same,MIC (in parentheses),[5],> 40.6 µM
same,MIC,[6],> 31.3 µg/mL
same,MIC (in parentheses),[6],> 40.6 µM
same,MIC,[7],>31.3 (40.6) μg/mL
same,MIC (in parentheses),[7],>31.3 (40.6) μM
same,MIC,[8],> 31.3 µg/mL
same,MIC (in parentheses),[8],40.6 µM
same,MIC,[9],> 31.3 µg/mL
same,MIC (in parentheses),[9],> 40.6 µM
same,MIC,[10],31.3 µg/mL
same,MIC (in parentheses),[10],40.6 µM
same,MIC,[11],> 31.3 µg/mL
same,MIC (in parentheses),[11],> 40.6 µM
same,MIC,[12],> 31.3 µg/mL
same,MIC (in parentheses),[12],> 40.6 µM
same,MIC,[13],31.3 µg/mL
same,MIC (in parentheses),[13],40.6 µM
same,antifungal activity,"[14]; all fungal strains tested, except C. neoformans (strain M)",completely inactive
same,overall assessment as antifungals,[14],poor antifungals
same,MIC,[15],31.3 µg/mL
same,MIC (in parentheses),[15],40.6 µM
same,MIC,[16],> 31.3 µg/mL
same,MIC (in parentheses),[16],> 40.6 µM
same,MIC,[17],> 31.3 µg/mL
same,MIC (in parentheses),[17],> 40.6 µM
same,MIC,[18],31.3 µg/mL
same,MIC (in parentheses),[18],40.6 µM
same,MIC,[19],1.95 µg/mL
same,MIC (in parentheses),[19],2.5 µM
same,MIC,[20],> 31.3 µg/mL
same,MIC (in parentheses),[20],> 40.6 µM
same,MIC,[21],31.3 µg/mL
same,MIC (in parentheses),[21],40.6 µM
